Results published in patent publication US10292991B2, “Small molecule therapeutic compounds that reduce the incidence of intracerebral hemorrhage and brain microhemorrhages” (St. Michaels Hospital, priority 2016, dated 2019).
Where a name gives a salt, the structure may show the parent alone. Read-outs that look alike come from different tables or passages of the source.

Legend:
[1] = test system: β-Pix MO-induced hemorrhage in zebrafish; assay: βPix morpholino-induced hemorrhage in zebrafish, rescue by drugs; assay type: in vivo, zebrafish (Danio rerio); conditions: for Efficacy on β-Pix MO Hemorrhage: inhibition of β-Pix MO-induced hemorrhage
Protocol: (§1) Morpholino oligonucleotides (MOs) were custom-synthesized by Gene Tools (Carvalis, Oreg.); their sequences are shown in Table 1.
(§2) Danieau buffer (58 mM NaCl, 0.7 mM KCl, 0.4 mM MgSO4, 0.6 mM Ca(NO3)2, 5.0 mM HEPES, pH 7.6) was used to dilute the MO solutions to 0.2 mM final concentration. Individual wells were placed on a 1.0% agarose plate, in which the embryos were positioned. Afterwards, the MO solution was injected through the cell yolk into embryos of 1 to 4 cell-stage. The injected quantities varied from 0.5 to 15 ng.
(§3) bbhm292 zebrafish mutant has a hypomorphic mutation in βPix, resulting in ICH/BMH and hydrocephalus. The MO is βPixexon6-MO which blocks splicing of exon 6 and results in premature protein termination. […] Higher doses of βPixexon6-MO (up to 8 ng) result in a lack of blood circulation, and therefore no ICH/BMH was detected. Injection of 8 ng results in complete missplicing of βPix and therefore a null phenotype, whereas lower doses retain some normally spliced βPix. The βPixexon6-MO sequence is 5′-[…]-3′ [SEQ ID NO: 1]. 3Pixexon6-MO was injected into the embryos at the 1-2 cell stage, and compounds were added 12 hpf.
(§4) The first three morpholino pairs were good for the efficacy study. Efficacy assays were performed using Artemether (ARM, Sigma) and artemesunate (ART, GMP). […] Treating these morphants with the drugs rescued the ICH phenotype.

[2] = test system: brain hemorrhage induced by 1 μM atorvastatin in zebrafish; assay: Atorvastatin-induced brain hemorrhage (ICH) model in zebrafish, rescue by drugs; conditions: for Efficacy on atorvastatin Hemorrhage: ATV model induced by 1 μmol/L atorvastatin, inhibition of hemorrhage; for Result in the ATV zebrafish model: derivatives acquired from Sequoia Research Products
Protocol: Zebrafish were set up the night before the experiment day. In the morning of the experimental day, we put breeders together for mating and fertilization. 6 hours post-fertilization (hpf), statins was added into a 96-well plate holding 100 μl water with 7 to 8 fish eggs in each well, which was optimized through a serial pilot experiments. Statins were dissolved in DMSO and diluted with 0.5% of DMSO water into a working solution. 100 μl water containing 0.5% of DMSO was the medium for all wells in the final assessment.
For screening NIH compound libraries, 5 μM of each of the drugs from the library was added at 24 hpf into wells containing fish eggs treated with 1 μM ATV since 6 hpf. Hemorrhage positive control wells were treated with ATV but not treated with any drugs. Negative controls were not treated with any chemicals (fish with 0.5% of DMSO water). Geranylgeranyl pyrophosphate (GGPP, 4 mg/L) was used as positive rescue control.
Brain hemorrhage was assessed 72 hpf (66 hours after addition of statins) using stereomicroscopy by two observers. Percentage of brain hemorrhage was used as final readout. Compounds showing more than 70% of rescue of the brain hemorrhages in the initial test were re-tested to generate a final list of hits from the library.
All subsequent EC50 assays of positive compounds were performed with protocols established and optimized during the screening.

zebrafish larvae [3] = assay: Toxicity assay in zebrafish larvae (heart beat, blood flow, cardiac edema); assay type: in vivo, zebrafish (Danio rerio)
Protocol: The embryos were collected and distributed into a 96-well plate in 0.5% DMSO, similar to efficacy assays. […] Heart beat and blood flow were ranked from 3 (normal heart beat or blood flow) to 0 (no heart beat or blood flow). Cardiac edema was ranked from 0 (normal heart without edema) to −3 (severe cardiac edema). […] The ratio of TC50/EC50 was calculated in each case.
Heart beat and blood flow were ranked from 3 (normal heart beat or blood flow) to 0 (no heart beat or blood flow). Cardiac edema was ranked from 0 (normal heart without edema) to −3 (severe cardiac edema). […] Data is expressed as mean±SEM from 3 experiments.

[4] = test system: bbh mutant zebrafish (mutation in βPix), spontaneous ICH; assay: bbh (bubblehead) mutant genetic model of brain hemorrhage; assay type: in vivo, zebrafish (Danio rerio); conditions: for EC50: read-out: EC50 to rescue brain hemorrhage, bbh Mutant Model
Excerpt: A specific zebrafish line with a gene mutation called bubblehead (bbh) was used. This line has spontaneous ICH. Bubblehead phenotype is caused by a mutation in βPix. Adult homozygous zebrafish were viable and fertile. […] More than 85% of zebrafish larvae display an ICH phenotype.

CCM3 (Ccm3) mRNA = assay: qRT-PCR of CCM3 mRNA in atorvastatin-treated zebrafish larvae; assay type: in vivo, zebrafish (Danio rerio); conditions: 1 μmol/L atorvastatin alone
Protocol: qRT-PCR was used to assess relative expression of selected genes (an average of two biological trial and three technical replicates and each trial is a pool of 60 larvae/treatment), using β-actin as the housekeeping gene control. 3 dpf, Tg(Flk:GFP; Gata:dsRed) zebrafish larvae were used for RNA extraction and cDNA synthesis. Atorvastatin and drug treatment were performed as previously mentioned in drug screening. Total RNA was extracted from these larvae (a pool of 50-60 larvae/treatment) using the RNeasy extraction kit (Qiagen, Mississauga, ON, CAN) and treated with DNase. The concentration of total RNA was determined spectrophotometrically at 260/280 nm using a NanoDrop™ spectrophotometer. First-strand cDNA was synthesized from 1 μg of total RNA using random hexamer primers.
In each case, forward primer is shown on the top and reverse primer on the bottom.
PCR was carried out in a 20 μl total volume and included 1×PCR buffer, 1.25 mM MgCl2, 0.25 mM dNTP, 1 U Taq polymerase, 0.5 μmol/L forward, and reverse primers and 1 μl cDNA.

mice treated with LPS = assay: Atorvastatin plus LPS in mice: mortality and large hemorrhages; assay type: in vivo; conditions: for mortality: n=5
Excerpt: While the present invention has been described with reference to the specific embodiments thereof it should be understood by those skilled in the art that various changes may be made and equivalents may be substituted without departing from the true spirit and scope of the invention. In addition, many modifications may be made to adopt a particular situation, material, composition of matter, process, process step or steps, to the objective spirit and scope of the present invention. All such modifications are intended to be within the scope of the claims appended hereto.

zebrafish larvae [5] = assay: Morpholino injection to induce hemorrhage in zebrafish larvae; assay type: in vivo; conditions: for Hemorrhage: at optimum injected amount, 3 dpf larvae, n = 150-250 per condition
Protocol: as §1, §2, §3
Another MO was designed to block the splice-donor sites after exon 8 in pak2a. Pak2a is the gene mutated in the rhdmi149 zebrafish mutant that develops ICH/BMH. The pak2a-MO sequence is 5′-[…]-3′ (SEQ ID NO: 2). Eight pg of pak2a-MO was injected per embryo, resulting in […] of embryos with ICH/BMH with low mortality (FIGS. 12 and 14).
Next, optimum amount of each morpholino was determined. The goal was to induce an acceptable percentage of hemorrhage (ideally between 40-80%), without having toxicity from morpholino injection.

[6] = test system: Cdh5 - exon2 morpholino-induced hemorrhage in zebrafish; assay: Cdh5 (VE-cadherin) morpholino-induced hemorrhage in zebrafish, rescue by drugs; assay type: in vivo, zebrafish (Danio rerio); conditions: result in words, no EC50
Protocol: as §2
Panels A & B: Stable EC junctions are maintained by a Cdc42-dependent and VE-cadherin-mediated cell-cell adhesion. VE cadherins are found on the surfaces of EC cell-cell junctions. VE-cadherins are associated with β- and α-catenins at their cytoplasmic domains, which connect them to the actin-based cytoskeleton (blue circles). Cdc42 belongs to the Rho-family of small guanosine triphosphatases (GTPases), which are the main regulators of VE-cadherin-based cell-cell adhesion. The functions of hmgcrb, βPix, and pak2a in regulating junctional stability in zebrafish are shown. HNGCR mediated GGPP biosynthesis regulates Cdc42 prenylation. βPix is a GEF that increases CDC42 affinity for GTP. Pak2 is an effector of Cdc42, which regulates actin filament organization.
Suppression of VE-cadherin induces hemorrhage.

[7] = test system: Hmgcrb - splice morpholino-induced hemorrhage in zebrafish; assay: Hmgcrb morpholino-induced hemorrhage in zebrafish, rescue by drugs; assay type: in vivo, zebrafish (Danio rerio)
Protocol: as §2, §4

[8] = test system: Pak2a - exon8 morpholino-induced hemorrhage in zebrafish; assay: Pak2a morpholino-induced hemorrhage in zebrafish, rescue by drugs; assay type: in vivo, zebrafish (Danio rerio); conditions: result in words
Protocol: as §2
Another MO was designed to block the splice-donor sites after exon 8 in pak2a. Pak2a is the gene mutated in the rhdmi149 zebrafish mutant that develops ICH/BMH.
Efficacy assays were performed using Artemether (ARM, Sigma) and artemesunate (ART, GMP).

[9] = drug from Sequoia Research (UK)
[10] = drug from Sigma, 3 dpf larvae, drug added 24 hpf
[11] = Danio rerio, read-out: EC50 (in nmol/L) on atorfvastatin model (μmol/L)
[12] = Danio rerio, read-out: EC50 to rescue brain hemorrhage, Statin Model
[13] = n = 15-20 larvae per condition, 1-3 times per compound

## Benidipine
[1]
  Efficacy on β-Pix MO Hemorrhage: ++++ (One + sign represents 20% inhibition on 1 μmol/L ATV or β-Pix MO-induced hemorrhage.)
[2]
  Efficacy on atorvastatin Hemorrhage: ++++ (One + sign represents 20% inhibition on 1 μmol/L ATV or β-Pix MO-induced hemorrhage.)

## C[C@H]1[C@@H](O)O[C@@H]2O[C@]3(C)CC[C@H]4[C@H](C)CC[C@@H]1[C@@]24OO3 [Dihydroartemisinin]
Zebrafish larvae [3]; [9]
  TC50 (Blood flow): 979.5 nM
  TC50 (Edema): 1021 nM
Zebrafish larvae [3]; [10]
  TC50 (Blood flow): 890 nM
  TC50 (Edema): 748.5 nM
[1]
  Efficacy on β-Pix MO Hemorrhage: +++++ (One + sign represents 20% inhibition on 1 μmol/L ATV or β-Pix MO-induced hemorrhage.)
[4]; Danio rerio
  EC50: 107 nM
[2]
  Efficacy on atorvastatin Hemorrhage: +++++ (One + sign represents 20% inhibition on 1 μmol/L ATV or β-Pix MO-induced hemorrhage.)
  Result in the ATV zebrafish model: tested positive
[2]; [11]
  EC50: 67 nmol/L
[2]; [12]
  EC50: 80.8 nmol/L

## C#C[C@]1(O)CC[C@H]2[C@@H]3CCc4cc(O)ccc4[C@H]3CC[C@@]21C [Ethynylestradiol]
[2]
  Efficacy on atorvastatin Hemorrhage: +++ (One + sign represents 20% inhibition on 1 μmol/L ATV or β-Pix MO-induced hemorrhage.)

## CCOC(=O)C1=C(C)NC(C)=C(C(=O)OCC)C1c1ccccc1/C=C/C(=O)OC(C)(C)C [Lacidipine]
[2]
  Efficacy on atorvastatin Hemorrhage: ++++ (One + sign represents 20% inhibition on 1 μmol/L ATV or β-Pix MO-induced hemorrhage.)

## CC(C)c1c(C(=O)Nc2ccccc2)c(-c2ccccc2)c(-c2ccc(F)cc2)n1CC[C@@H](O)C[C@@H](O)CC(=O)O [Atorvastatin, atorvastatin calcium salt]
CCM3 (Ccm3) mRNA
  CCM3 transcription level (qRT-PCR) after inducing hemorrhage: decrease
Mice treated with LPS; atorvastatin 50 mg/kg in addition to LPS 5 mg/kg, 24 hours after treatments
  mortality: 100%
Mice treated with LPS; mouse, in vivo
  Number of large hemorrhages caused by LPS: significantly increased
Mice treated with LPS; statin alone, 24 hours
  mortality: did not cause any mortality

## GGTasel: morpholino 5′-CACGCGGTGTGTGGACTCACGGTCA-3′ (all phosphorodiamidate morpholino (PMO))
Zebrafish larvae [5]
  Hemorrhage: 11.4% (Faint)

## C[C@H]1[C@H](OC(=O)CCC(=O)O)O[C@@H]2O[C@@]3(C)CC[C@H]4[C@H](C)CC[C@@H]1[C@@]24OO3 [Artesunate]
Zebrafish larvae [3]; GMP-Artesunate
  TC50 (Blood flow): 794.4 nM
  TC50 (Edema): 3196 nM
  TC50 (Heart beat): 2525 nM
Zebrafish larvae [3]; [9]
  TC50 (Blood flow): 1036 nM
  TC50 (Edema): 937.8 nM
  TC50 (Heart beat): 9539 nM
Zebrafish larvae [3]; [10]
  TC50 (Blood flow): 741.5 nM
  TC50 (Edema): 5367 nM
  TC50 (Heart beat): 8884 nM
[1]; Table 6, read-out: EC50 to rescue hemorrhage induced by βPix - exon6 morpholino
  EC50: 95.6 ± 27.9 nM
[6]
  Rescue of hemorrhage induced by Cdh5 - exon2 morpholino: Rescue effect
[4]; [13]
  EC50: 127 nM
[7]; Table 6
  EC50: 167 ± 9.3 nM
[2]; read-out: EC50 to rescue brain hemorrhage, Statin Model, Table 4, n = 15-20 larvae per condition, three times per compound
  EC50: 182 nmol/L

## Artesunate
[1]; 5 μmol/L, compounds added 12 hpf
  ICH in βPixexon6-MO injected embryos: prevented ICH
[1]
  Efficacy on β-Pix MO Hemorrhage: +++++ (One + sign represents 20% inhibition on 1 μmol/L ATV or β-Pix MO-induced hemorrhage.)
[6]
  Rescue of hemorrhage induced by Cdh5 - exon2 morpholino: rescue was observed
[4]; [13]
  EC50: 140 nM
[4]; result in words
  Rescue of hemorrhage / ICH phenotype in bbh mutants: rescues the ICH phenotype
[7]; result in words
  ICH/BMH after MO-mediated inhibition of hmgcrb: prevented
[2]
  Efficacy on atorvastatin Hemorrhage: +++++ (One + sign represents 20% inhibition on 1 μmol/L ATV or β-Pix MO-induced hemorrhage.)
[2]; read-out: EC50 (in nmol/L) on atorfvastatin model (μmol/L), Table 3, 1 μmol/L atorvastatin, 3 to 4 experiments
  EC50: 211 nmol/L
[8]
  ICH/BMH after treatment with pak2a-MO: dose-dependently reduced

## Rap1b - exon3: morpholino 5′-AAATGATGCAGAACTTGCCTTTCTG-3′ (all phosphorodiamidate morpholino (PMO))
Zebrafish larvae [5]
  Hemorrhage: 30.8% (Faint)

## CC(C)[C@]12O[C@H]1[C@@H]1O[C@]13[C@]1(O[C@H]1C[C@@]1(C)C4=C(CC[C@]31C)C(=O)OC4)[C@H]2O [Tripolide]
[1]
  Efficacy on β-Pix MO Hemorrhage: No effect
[2]
  Efficacy on atorvastatin Hemorrhage: ++++ (One + sign represents 20% inhibition on 1 μmol/L ATV or β-Pix MO-induced hemorrhage.)

## Hmgcrb - splice: morpholino 5′-AACTGCATTCATAAACTCACCCAGT-3′ (all phosphorodiamidate morpholino (PMO))
Zebrafish larvae [5]
  Hemorrhage: 67.9%

## Cdh5 - exon2: morpholino 5′-TACAAGACCGTCTACCTTTCCAATC-3′ (antisense; all phosphorodiamidate morpholino (PMO))
Zebrafish larvae [5]; at optimum injected amount (1.0 ng)
  Cardiac Edema: 35.0% (Cardiac Edema)
Zebrafish larvae [5]
  Hemorrhage: 39.4%

## C[C@@H]1CC[C@H]2[C@@H](C)C(=O)O[C@@H]3O[C@]4(C)CC[C@@H]1[C@]32OO4 [Artemisinin]
Zebrafish larvae [3]; [9]
  TC50 (Blood flow): 5340 nM
  TC50 (Edema): 6347 nM
  TC50/EC50 ratio (Blood flow): (20.4)
  TC50/EC50 ratio (Edema): 24.2)
  TC50/EC50 ratio (Heart beat): 4.6e+007)
Zebrafish larvae [3]; drug from Sigma
  TC50/EC50 ratio (Blood flow): (13)
  TC50/EC50 ratio (Edema): (419)
  TC50/EC50 ratio (Heart beat): (104.5)
Zebrafish larvae [3]; [10]
  TC50 (Blood flow): 1058 nM
  TC50 (Edema): 34134 nM
  TC50 (Heart beat): 8501 nM
[1]
  Efficacy on β-Pix MO Hemorrhage: +++++ (One + sign represents 20% inhibition on 1 μmol/L ATV or β-Pix MO-induced hemorrhage.)
[4]; Danio rerio
  EC50: 177 nM
[2]
  Efficacy on atorvastatin Hemorrhage: +++++ (One + sign represents 20% inhibition on 1 μmol/L ATV or β-Pix MO-induced hemorrhage.)
  Result in the ATV zebrafish model: tested positive
[2]; [11]
  EC50: 95 nmol/L
[2]; [12]
  EC50: 81.3 nmol/L
